How the values were obtained:
Assay in all cases: relative viability (nuclei count vs DMSO), 5 days (fraction); higher = more cells survive
AT-7519 + Pictilisib = compound: O=C(NC1CCNCC1)c1n[nH]cc1NC(=O)c1c(Cl)cccc1Cl [AT-7519] + CS(=O)(=O)N1CCN(Cc2cc3nc(-c4cccc5[nH]ncc45)nc(N4CCOCC4)c3s2)CC1 [Pictilisib] (partner 1 µM)
Outline: (§1)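 Each reported value is a median over duplicate plates. It expresses relative viability: treated-well nuclei count divided by vehicle-well nuclei count. Lung cancer cell lines in 1536-well plates were dosed by pin tool a day after seeding, alone with one drug or with a fixed anchor-drug dose plus five library-drug doses (not always all listed) in √10 steps, and nuclei were counted after 5 days.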

AT-7519 + Olaparib = compound: O=C(NC1CCNCC1)c1n[nH]cc1NC(=O)c1c(Cl)cccc1Cl [AT-7519] + O=C(c1cc(Cc2n[nH]c(=O)c3ccccc23)ccc1F)N1CCN(C(=O)C2CC2)CC1 [Olaparib] (partner 8 µM)
Outline: as §1

[1] = compound: C1=CC2=C(C=C(C(=C2N=C1)O)N=NC3=CC4=C(C=C3)C=C(C=C4)S(=O)(=O)O)S(=O)(=O)O + CC(=O)Nc1cccc(-n2c(=O)n(C3CC3)c(=O)c3c(Nc4ccc(I)cc4F)n(C)c(=O)c(C)c32)c1 [Trametinib] (partner 0.02 µM)
Outline: as §1

[2] = compound: C1=CC2=C(C=C(C(=C2N=C1)O)N=NC3=CC4=C(C=C3)C=C(C=C4)S(=O)(=O)O)S(=O)(=O)O + CCNC(=O)c1noc(-c2cc(C(C)C)c(O)cc2O)c1-c1ccc(CN2CCOCC2)cc1 [Luminespib] (partner 0.01 µM)
Outline: as §1

LXF-289
relative viability (AT-7519 + Pictilisib; first compound 0.01 µM): 0.819
relative viability (AT-7519 + Pictilisib; first compound 0.03162 µM): 0.838
relative viability (AT-7519 + Pictilisib; first compound 0.3162 µM): 0.787
relative viability (AT-7519 + Pictilisib; first compound 1 µM): 0.746
relative viability (AT-7519 + Olaparib; first compound 0.01 µM): 1.09
relative viability (AT-7519 + Olaparib; first compound 0.03162 µM): 1.15
relative viability (AT-7519 + Olaparib; first compound 0.3162 µM): 1.02
relative viability (AT-7519 + Olaparib; first compound 1 µM): 1.06
relative viability ([1]; first compound 0.08 µM): 0.718
relative viability ([1]; first compound 0.253 µM): 0.682
relative viability ([1]; first compound 0.8 µM): 0.638
relative viability ([1]; first compound 2.53 µM): 0.679
relative viability ([1]; first compound 8 µM): 0.62
relative viability ([2]; first compound 0.08 µM): 0.788
relative viability ([2]; first compound 0.253 µM): 0.645
relative viability ([2]; first compound 0.8 µM): 0.73
relative viability ([2]; first compound 2.53 µM): 0.681
relative viability ([2]; first compound 8 µM): 0.642

NCI-H23
relative viability (AT-7519 + Pictilisib; first compound 0.01 µM): 0.534
relative viability (AT-7519 + Pictilisib; first compound 0.03162 µM): 0.438
relative viability (AT-7519 + Pictilisib; first compound 0.3162 µM): 0.428
relative viability (AT-7519 + Pictilisib; first compound 1 µM): 0.123
relative viability (AT-7519 + Olaparib; first compound 0.01 µM): 0.368
relative viability (AT-7519 + Olaparib; first compound 0.03162 µM): 0.265
relative viability (AT-7519 + Olaparib; first compound 0.3162 µM): 0.327
relative viability (AT-7519 + Olaparib; first compound 1 µM): 0.173
relative viability ([1]; first compound 0.08 µM): 0.39
relative viability ([1]; first compound 0.253 µM): 0.319
relative viability ([1]; first compound 0.8 µM): 0.392
relative viability ([1]; first compound 2.53 µM): 0.443
relative viability ([1]; first compound 8 µM): 0.346
relative viability ([2]; first compound 0.08 µM): 0.202
relative viability ([2]; first compound 0.253 µM): 0.21
relative viability ([2]; first compound 2.53 µM): 0.194
relative viability ([2]; first compound 8 µM): 0.209

NCI-H322M
relative viability (AT-7519 + Pictilisib; first compound 0.01 µM): 0.565
relative viability (AT-7519 + Pictilisib; first compound 0.03162 µM): 0.495
relative viability (AT-7519 + Pictilisib; first compound 0.3162 µM): 0.473
relative viability (AT-7519 + Pictilisib; first compound 1 µM): 0.439
relative viability (AT-7519 + Olaparib; first compound 0.01 µM): 0.746
relative viability (AT-7519 + Olaparib; first compound 0.03162 µM): 0.739
relative viability (AT-7519 + Olaparib; first compound 0.3162 µM): 0.249
relative viability (AT-7519 + Olaparib; first compound 1 µM): 0.643
relative viability ([1]; first compound 0.08 µM): 0.535
relative viability ([1]; first compound 0.253 µM): 0.544
relative viability ([1]; first compound 0.8 µM): 0.566
relative viability ([1]; first compound 2.53 µM): 0.504
relative viability ([1]; first compound 8 µM): 0.528
relative viability ([2]; first compound 0.08 µM): 1.04
relative viability ([2]; first compound 0.253 µM): 0.828
relative viability ([2]; first compound 0.8 µM): 0.859
relative viability ([2]; first compound 2.53 µM): 0.847
relative viability ([2]; first compound 8 µM): 1.12

NCI-H358
relative viability (AT-7519 + Pictilisib; first compound 0.01 µM): 0.294
relative viability (AT-7519 + Pictilisib; first compound 0.03162 µM): 0.308
relative viability (AT-7519 + Pictilisib; first compound 0.3162 µM): 0.239
relative viability (AT-7519 + Pictilisib; first compound 1 µM): 0.212
relative viability (AT-7519 + Olaparib; first compound 0.01 µM): 0.608
relative viability (AT-7519 + Olaparib; first compound 0.03162 µM): 0.48
relative viability (AT-7519 + Olaparib; first compound 0.3162 µM): 0.36
relative viability (AT-7519 + Olaparib; first compound 1 µM): 0.11
relative viability ([1]; first compound 0.08 µM): 0.158
relative viability ([1]; first compound 0.253 µM): 0.128
relative viability ([1]; first compound 0.8 µM): 0.142
relative viability ([1]; first compound 2.53 µM): 0.136
relative viability ([1]; first compound 8 µM): 0.144
relative viability ([2]; first compound 0.08 µM): 0.342
relative viability ([2]; first compound 0.253 µM): 0.382
relative viability ([2]; first compound 0.8 µM): 0.307
relative viability ([2]; first compound 2.53 µM): 0.309
relative viability ([2]; first compound 8 µM): 0.214

NCI-H441
relative viability (AT-7519 + Pictilisib; first compound 0.01 µM): 0.448
relative viability (AT-7519 + Pictilisib; first compound 0.03162 µM): 0.452
relative viability (AT-7519 + Pictilisib; first compound 0.3162 µM): 0.468
relative viability (AT-7519 + Pictilisib; first compound 1 µM): 0.161
relative viability (AT-7519 + Olaparib; first compound 0.01 µM): 0.524
relative viability (AT-7519 + Olaparib; first compound 0.03162 µM): 0.559
relative viability (AT-7519 + Olaparib; first compound 0.3162 µM): 0.446
relative viability (AT-7519 + Olaparib; first compound 1 µM): 0.204
relative viability ([1]; first compound 0.08 µM): 0.558
relative viability ([1]; first compound 0.253 µM): 0.464
relative viability ([1]; first compound 0.8 µM): 0.435
relative viability ([1]; first compound 2.53 µM): 0.341
relative viability ([1]; first compound 8 µM): 0.476
relative viability ([2]; first compound 0.08 µM): 0.454
relative viability ([2]; first compound 0.253 µM): 0.323
relative viability ([2]; first compound 0.8 µM): 0.428
relative viability ([2]; first compound 2.53 µM): 0.363
relative viability ([2]; first compound 8 µM): 0.278

NCI-H522
relative viability (AT-7519 + Olaparib; first compound 0.01 µM): 0.75
relative viability (AT-7519 + Olaparib; first compound 0.03162 µM): 0.595
relative viability (AT-7519 + Olaparib; first compound 0.3162 µM): 0.664
relative viability (AT-7519 + Olaparib; first compound 1 µM): 0.498
relative viability ([1]; first compound 0.08 µM): 0.494
relative viability ([1]; first compound 0.253 µM): 0.676
relative viability ([1]; first compound 0.8 µM): 0.748
relative viability ([1]; first compound 2.53 µM): 0.791
relative viability ([1]; first compound 8 µM): 0.894
relative viability ([2]; first compound 0.08 µM): 1.21
relative viability ([2]; first compound 0.253 µM): 1.19
relative viability ([2]; first compound 0.8 µM): 0.983
relative viability ([2]; first compound 2.53 µM): 1.16
relative viability ([2]; first compound 8 µM): 1.11

NCI-H1299
relative viability (AT-7519 + Pictilisib; first compound 0.01 µM): 0.865
relative viability (AT-7519 + Pictilisib; first compound 0.03162 µM): 0.738
relative viability (AT-7519 + Pictilisib; first compound 0.3162 µM): 0.507
relative viability (AT-7519 + Pictilisib; first compound 1 µM): 0.127
relative viability (AT-7519 + Olaparib; first compound 0.01 µM): 0.97
relative viability (AT-7519 + Olaparib; first compound 0.03162 µM): 1
relative viability (AT-7519 + Olaparib; first compound 0.3162 µM): 0.935
relative viability (AT-7519 + Olaparib; first compound 1 µM): 1.09

NCI-H1563
relative viability (AT-7519 + Pictilisib; first compound 0.01 µM): 0.591
relative viability (AT-7519 + Pictilisib; first compound 0.03162 µM): 0.612
relative viability (AT-7519 + Pictilisib; first compound 0.3162 µM): 0.764
relative viability (AT-7519 + Pictilisib; first compound 1 µM): 0.511
relative viability ([2]; first compound 0.08 µM): 0.514
relative viability ([2]; first compound 0.253 µM): 0.522
relative viability ([2]; first compound 0.8 µM): 0.489
relative viability ([2]; first compound 2.53 µM): 0.498
relative viability ([2]; first compound 8 µM): 0.404

NCI-H1623
relative viability ([2]; first compound 0.08 µM): 0.747
relative viability ([2]; first compound 0.253 µM): 0.471
relative viability ([2]; first compound 0.8 µM): 0.471
relative viability ([2]; first compound 2.53 µM): 0.503
relative viability ([2]; first compound 8 µM): 0.559

NCI-H1648
relative viability (AT-7519 + Olaparib; first compound 0.01 µM): 0.852
relative viability (AT-7519 + Olaparib; first compound 0.3162 µM): 0.696
relative viability (AT-7519 + Olaparib; first compound 1 µM): 0.49
relative viability ([1]; first compound 0.253 µM): 0.57
relative viability ([1]; first compound 8 µM): 0.59

NCI-H1703
relative viability (AT-7519 + Pictilisib; first compound 0.01 µM): 0.322
relative viability (AT-7519 + Pictilisib; first compound 0.03162 µM): 0.234
relative viability (AT-7519 + Pictilisib; first compound 0.3162 µM): 0.241
relative viability (AT-7519 + Pictilisib; first compound 1 µM): 0.129
relative viability (AT-7519 + Olaparib; first compound 0.01 µM): 0.454
relative viability (AT-7519 + Olaparib; first compound 0.03162 µM): 0.435
relative viability (AT-7519 + Olaparib; first compound 0.3162 µM): 0.388
relative viability (AT-7519 + Olaparib; first compound 1 µM): 0.175

NCI-H2342
relative viability (AT-7519 + Olaparib; first compound 0.01 µM): 0.391
relative viability (AT-7519 + Olaparib; first compound 0.03162 µM): 0.427
relative viability (AT-7519 + Olaparib; first compound 0.3162 µM): 0.454
relative viability (AT-7519 + Olaparib; first compound 1 µM): 0.443
relative viability ([1]; first compound 0.08 µM): 0.82
relative viability ([1]; first compound 0.253 µM): 0.884
relative viability ([1]; first compound 0.8 µM): 0.943
relative viability ([1]; first compound 2.53 µM): 0.808
relative viability ([1]; first compound 8 µM): 0.764
relative viability ([2]; first compound 0.08 µM): 0.67
relative viability ([2]; first compound 0.253 µM): 0.714
relative viability ([2]; first compound 0.8 µM): 0.625
relative viability ([2]; first compound 2.53 µM): 0.767
relative viability ([2]; first compound 8 µM): 0.73

SW 900
relative viability (AT-7519 + Olaparib; first compound 0.01 µM): 1.06
relative viability (AT-7519 + Olaparib; first compound 0.03162 µM): 0.8
relative viability (AT-7519 + Olaparib; first compound 0.3162 µM): 0.622
relative viability (AT-7519 + Olaparib; first compound 1 µM): 0.371
relative viability ([1]; first compound 0.08 µM): 0.873
relative viability ([1]; first compound 0.253 µM): 0.764
relative viability ([1]; first compound 0.8 µM): 0.699
relative viability ([1]; first compound 2.53 µM): 0.968
relative viability ([1]; first compound 8 µM): 0.821
relative viability ([2]; first compound 0.08 µM): 0.175
relative viability ([2]; first compound 0.253 µM): 0.2
relative viability ([2]; first compound 0.8 µM): 0.18
relative viability ([2]; first compound 2.53 µM): 0.186
relative viability ([2]; first compound 8 µM): 0.163
